Measurements taken from US11535670B2, “Combination therapies of HDAC inhibitors and PD-L1 inhibitors” (HUYABIO International, LLC, priority 2016, dated 2022).

Assays:
[1] = tested on: MC38 murine colon carcinoma; assay: Example 3: second-line therapy of MC38 tumors progressing after first-line PD-1 inhibitor antibody, response rates; type: in vivo, C57BL/6 mice; details: second-line after failing PD-1 inhibitor antibody; HBI-8000 50 mg/kg p.o. qd×21; antibodies 5 mg/kg i.p. biwk×2 (Table 4: biwk × 3)
Excerpt: In this model, a proportion of the animals treated 1st line with the PD-1 checkpoint inhibitor antibody experience complete tumor regression. However, a similar proportion of animals treated 1st line with the PD-1 inhibitor antibody experience rapid tumor progression. The balance of the animals treated in this way experience slow tumor progression or stable disease, which is a result which approximates the situation in a number of human cancer patients receiving PD-1 inhibitor antibody therapy, i.e., they experience a transient partial response, including stable disease, but then develop resistance and rapidly progress, failing PD-1 inhibitor antibody therapy. In this example, the efficacy of HBI-8000 (DZ1) as a second-line therapy, alone and in combination with PDL-1 inhibitor antibody 10F.9G2 (anti-PDL-1), was evaluated for the ability to cause tumor growth delay (TGD) in animals which tumors progressed following PD-1 inhibitor antibody first line of therapy in the MC38 murine colon carcinoma syngeneic model in immunocompetent C57BL/6 mice.
Female C57BL/6 mice bearing subcutaneous MC38 tumors (mean tumor volume: 114 mm^3 when treatment began) were treated with a first line of therapy of PD-1 inhibitor antibody treatment, administered intraperitoneally (i.p.) at 5 mg/kg, twice weekly for two weeks (biwk×2). […] Dosing began on Dl, which represented the day of recruitment and varied among mice (this was normalized for each group). The second line therapies were as follows. Vehicle was administered orally (p.o.). HBI-8000 was administered p.o. at 50 mg/kg. PD-1 inhibitor antibody and anti-PDL-1 were each administered intraperitoneally (i.p) at 5 mg/kg. Group 1 mice served as controls and received 0.2% carboxymethyl cellulose: 0.1% Tween 80 in deionized water (vehicle) once daily for twenty-one days (qd×21). Group 2 received HBI-8000 qd×21. Group 3 received a second course of PD-1 inhibitor antibody biwk×2. Group 4 received HBI-8000 qd×21 and PD-1 inhibitor antibody biwk×2. Group 5 received anti-PDL-1 biwk×2. Group 6 received HBI-8000 qd×21 and anti-PDL-1 biwk×2. […]

HDAC 1 = HDAC 1 (Homo sapiens, UniProt Q13547); details: cited from earlier work
Sequence of HDAC 1 (Q13547 whole entry): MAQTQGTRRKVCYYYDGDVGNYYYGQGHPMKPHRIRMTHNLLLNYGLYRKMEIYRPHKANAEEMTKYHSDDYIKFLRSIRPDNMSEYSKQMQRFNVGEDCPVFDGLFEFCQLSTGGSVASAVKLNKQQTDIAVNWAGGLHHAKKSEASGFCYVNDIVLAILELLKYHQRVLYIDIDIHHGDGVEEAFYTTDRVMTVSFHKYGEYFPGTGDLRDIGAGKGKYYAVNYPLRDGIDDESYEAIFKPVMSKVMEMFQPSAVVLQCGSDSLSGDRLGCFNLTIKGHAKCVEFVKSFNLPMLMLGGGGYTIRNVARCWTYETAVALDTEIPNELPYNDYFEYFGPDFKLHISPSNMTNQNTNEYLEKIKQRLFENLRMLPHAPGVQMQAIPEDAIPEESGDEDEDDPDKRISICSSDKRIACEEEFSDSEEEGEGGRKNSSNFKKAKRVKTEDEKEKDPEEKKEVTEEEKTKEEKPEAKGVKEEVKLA

HDAC 10 = molecular target: T1, HDAC 10 (Homo sapiens, UniProt Q969S8); details: cited from earlier work
T1 sequence (Q969S8 1-669): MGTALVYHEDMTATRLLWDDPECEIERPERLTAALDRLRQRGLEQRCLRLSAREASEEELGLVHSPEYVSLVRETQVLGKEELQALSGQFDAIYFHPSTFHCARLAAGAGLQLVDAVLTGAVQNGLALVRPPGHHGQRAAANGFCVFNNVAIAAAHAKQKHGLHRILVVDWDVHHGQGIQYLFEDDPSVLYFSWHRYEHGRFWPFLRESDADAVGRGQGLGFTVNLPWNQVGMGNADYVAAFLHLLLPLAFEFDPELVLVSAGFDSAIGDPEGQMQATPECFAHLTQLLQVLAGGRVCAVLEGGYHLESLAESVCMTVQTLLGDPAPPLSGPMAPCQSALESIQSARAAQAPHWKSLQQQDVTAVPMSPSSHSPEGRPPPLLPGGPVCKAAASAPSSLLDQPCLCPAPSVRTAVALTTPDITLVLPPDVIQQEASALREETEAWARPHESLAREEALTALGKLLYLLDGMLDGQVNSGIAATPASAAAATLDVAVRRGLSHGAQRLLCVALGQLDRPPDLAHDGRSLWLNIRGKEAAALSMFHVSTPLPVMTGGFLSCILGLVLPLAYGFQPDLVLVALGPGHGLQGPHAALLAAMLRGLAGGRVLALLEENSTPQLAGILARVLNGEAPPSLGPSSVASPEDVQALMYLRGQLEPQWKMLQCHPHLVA

HDAC 8 = molecular target: T2, HDAC 8 (Homo sapiens, UniProt Q9BY41); details: cited from earlier work
T2 sequence (Q9BY41 1-377): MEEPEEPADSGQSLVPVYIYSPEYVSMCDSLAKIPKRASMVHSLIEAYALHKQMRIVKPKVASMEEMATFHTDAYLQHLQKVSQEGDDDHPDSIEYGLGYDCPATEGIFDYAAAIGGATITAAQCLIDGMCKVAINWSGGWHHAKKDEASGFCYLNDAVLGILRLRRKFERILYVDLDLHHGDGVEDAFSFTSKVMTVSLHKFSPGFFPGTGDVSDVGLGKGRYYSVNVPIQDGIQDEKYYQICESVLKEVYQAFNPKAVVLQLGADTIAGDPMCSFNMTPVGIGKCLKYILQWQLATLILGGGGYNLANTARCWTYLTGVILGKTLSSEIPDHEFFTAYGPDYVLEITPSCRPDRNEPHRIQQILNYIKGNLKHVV

Nc1cc(F)ccc1NC(=O)c1ccc(CNC(=O)/C=C/c2cccnc2)cc1 [HBI-8000, N-(2-amino-4-fluorophenyl)-4-[[[(2E)-1-oxo-3-(3-pyridinyl)-2-propen-1-yl]amino]methyl]benzamide]
Response rate: CR (complete response) [1]: 20%
Response rate: NR (no response) [1]: 40%
Response rate: PR (partial response) [1]: 40%
inhibition of HDAC 1 (HDAC 1): low nanomolar concentrations
activity at HDAC 1 compared with Entinostat (HDAC 1; versus Entinostat): more active than Entinostat
inhibition of HDAC 10 (HDAC 10): low nanomolar concentrations
activity at HDAC 10 compared with Entinostat (HDAC 10; versus Entinostat): more active than Entinostat
activity at HDAC 8 (HDAC 8): has activity
activity at HDAC 8 compared with Entinostat (HDAC 8; versus Entinostat): more active than Entinostat
